Experimental data published in patent US6447818B1, “Compositions containing compounds with adrenergic activity and vegetable extracts of Crataegus and gingko biloba for the treatment of overweight and obesity” (Ambros Pharma S.R.L., priority 1999, dated 2002).

Tested on: systemic arterial pressure and cardiac frequency in the rat
Test: Hypertensive and tachycardic effects of adrenergic substances and extracts in the anesthetized rat
Type: in vivo
Conditions: i.v., anesthetized male Wistar rats, dose-dependent
Source text: 1. Effects of Crataegus Extract and Oterin® on Hypertension Induced with Ephedrine or with Extract of Ephedra Sinica Standardized in Ephedrine or Induced with Synephrine, or with Extract of Citrus Aurantium Standardized in Synephrine in the Rat
Male Wistar rats (Charles River, Calco-CO) weighing 180-200 grams were used. The animals were anesthetized with ethylurethane (1.2-1.5 g/kg i.p.) and prepared for the recording of systemic arterial pressure (via the carotid artery) and cardiac frequency. Individual examples of the registration (copies of the original tracings) and the summary of the mean data (±SEM) are given in FIGS. 1-4.
The dosages of synephrine leading to hypertensive activity were slightly higher (0.5-2 mg/kg i.v.) (FIGS. 2A, 3C). […] Tachycardia was induced in the same dose-dependent manner (FIGS. 3A, 3B).

CNCC(O)c1ccc(O)cc1 (stereo not shown) [synephrine]
dosages inducing hypertensive effects on the arterial pressure: 0.5 to 2 mg/kg
